Test results: ChEMBL document CHEMBL5604063, “ASAP - DENV-2 NS2B-NS3 protease fluorescence dose response” (2024)
“And” between values parts separate entries of the source, which are not always exact repeats. Equal entries are not always repeated.

What was measured:
Genome polyprotein [1] = target: T1, Genome polyprotein (dengue virus type 2, UniProt P29990); type: functional, Thailand/16681/1984
Genome polyprotein [2] = target: T1, Genome polyprotein; type: functional, Thailand/16681/1984; remark: listed apart in the source

T1 sequence (P29990 1346-1475 limits assumed): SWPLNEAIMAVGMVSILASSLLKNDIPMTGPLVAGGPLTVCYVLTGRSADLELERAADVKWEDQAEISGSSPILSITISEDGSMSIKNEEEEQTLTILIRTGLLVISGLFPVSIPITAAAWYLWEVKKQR
T1 sequence (P29990 1476-2093 limits assumed): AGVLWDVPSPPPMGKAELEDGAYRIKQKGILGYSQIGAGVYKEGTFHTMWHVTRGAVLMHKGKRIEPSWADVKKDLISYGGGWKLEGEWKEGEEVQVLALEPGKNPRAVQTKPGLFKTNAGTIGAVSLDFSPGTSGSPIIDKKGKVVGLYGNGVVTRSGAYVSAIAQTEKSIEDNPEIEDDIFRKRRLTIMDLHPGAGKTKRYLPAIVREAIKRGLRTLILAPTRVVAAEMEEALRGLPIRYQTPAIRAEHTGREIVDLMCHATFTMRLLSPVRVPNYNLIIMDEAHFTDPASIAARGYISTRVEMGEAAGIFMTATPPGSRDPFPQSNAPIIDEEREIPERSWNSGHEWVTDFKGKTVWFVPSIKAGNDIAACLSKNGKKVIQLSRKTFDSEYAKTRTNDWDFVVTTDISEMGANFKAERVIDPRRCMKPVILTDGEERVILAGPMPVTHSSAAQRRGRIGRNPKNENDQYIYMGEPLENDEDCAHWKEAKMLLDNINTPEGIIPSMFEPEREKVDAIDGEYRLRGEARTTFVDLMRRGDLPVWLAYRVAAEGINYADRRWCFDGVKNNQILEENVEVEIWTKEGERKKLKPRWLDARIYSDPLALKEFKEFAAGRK

Compound	IC50 (Genome polyprotein [1])	IC50 (Genome polyprotein [2])
NCCCc1cccc(NC(=O)c2cc(Cl)cc(NC(=O)OCc3ccccc3)c2)n1	62.1 µM	> 100 µM
CC(=O)N1CCC([C@H](NC(=O)OCc2ccccc2)C(=O)Nc2cccc(CN)c2)CC1	> 99.5 µM	> 100 µM
N#Cc1csc(CN2CCC([C@H](NC(=O)OCc3ccccc3)C(=O)Nc3cccc(CN)c3)CC2)c1	> 99.5 µM	> 100 µM
FC(F)(F)Oc1cc(Cl)cc2c(CN3CCC(c4cscn4)CC3)c[nH]c12	> 99.5 µM	> 100 µM
NCc1cccc(NC(=O)c2cc(Cl)cc(OC3CC3)c2)c1	> 99.5 µM	> 100 µM
NCc1cccc(NC(=O)c2cc(Cl)cc(N3CCCC3)c2)c1	> 99.5 µM	> 100 µM
CCCCSc1ccc(Cl)cc1C(=O)Nc1cccc(CN)c1	> 99.5 µM	> 100 µM
NCc1cccc(NC(=O)c2cc(NC(=O)OCc3ccccc3)cc3c2OCCO3)c1	> 99.5 µM	> 100 µM
O=C(Nc1cc(Cl)cc(C(=O)NCC2(CO)CCNCC2)c1)OCc1ccccc1	> 99.5 µM	> 100 µM
NCc1cccc(NC(=O)[C@H](NC(=O)OCc2ccccc2)C2CCN(C(=O)C3CCOCC3)CC2)c1	> 99.5 µM	> 100 µM
CNCCS(=O)(=O)N1CCC([C@H](NC(=O)OCc2ccccc2)C(=O)Nc2cccc(CN)c2)CC1	> 99.5 µM	> 100 µM
O=C(Nc1cc(Cl)cc(C(=O)Nc2ccc3c(c2)[C@H]2CC[C@H]3N2)c1)OCc1ccccc1	76.4 µM	> 100 µM
CSc1cc(F)c(C(=O)Nc2cccc(CN)c2)cc1NC(=O)OCc1ccccc1	84.2 µM	> 100 µM
CCOCC(=O)N1CCC([C@H](NC(=O)OCc2ccccc2)C(=O)Nc2cccc(CN)c2)CC1	> 99.5 µM	> 100 µM
NCc1cccc(NC(=O)[C@H](NC(=O)OCc2ccccc2)C2CCN(C3CCCC3)CC2)c1	> 99.5 µM	> 100 µM
CCN(C)S(=O)(=O)N1CCC([C@H](NC(=O)OCc2ccccc2)C(=O)Nc2cccc(CN)c2)CC1	> 99.5 µM	> 100 µM
NCCCc1ccccc1NC(=O)c1cc(Cl)cc(NC(=O)OCc2ccccc2)c1	> 99.5 µM	> 100 µM
CC(C)CC(=O)N1CCC([C@H](NC(=O)OCc2ccccc2)C(=O)Nc2cccc(CN)c2)CC1	> 99.5 µM	> 100 µM
NCc1cccc(NC(=O)c2cc(Cl)ccc2-n2cncn2)c1	> 99.5 µM	> 100 µM
COCCOc1ccc(Cl)cc1C(=O)Nc1cccc(CN)c1	> 99.5 µM	> 100 µM
NCc1cccc(NC(=O)c2cc(Cl)ccc2OC2CCCC2)c1	> 99.5 µM	> 100 µM
CC(C)N1CCC([C@H](NC(=O)OCc2ccccc2)C(=O)Nc2cccc(CN)c2)CC1	> 99.5 µM	> 100 µM
NCc1cccc(NC(=O)[C@H](NC(=O)OCc2ccccc2)C2CCN(S(=O)(=O)c3ccccc3)CC2)c1	> 99.5 µM	> 100 µM
NCCc1nsc(NC(=O)c2cc(Cl)cc(NC(=O)OCc3ccccc3)c2)n1	> 99.5 µM	> 100 µM
CN(C)Cc1cccc(C(=O)Nc2cccc(CN)c2)c1	> 99.5 µM	> 100 µM
Cc1nnc(CN2CCC([C@H](NC(=O)OCc3ccccc3)C(=O)Nc3cccc(CN)c3)CC2)s1	> 99.5 µM	> 100 µM
NCc1cccc(CS(=O)(=O)c2cc(Cl)cc(NC(=O)OCc3ccccc3)c2)c1	> 99.5 µM	> 100 µM

Compound	IC50 (Genome polyprotein [1])	IC50 (Genome polyprotein [2])
CS(=O)(=O)Nc1ccc(Cl)cc1C(=O)Nc1cccc(CN)c1	> 99.5 µM	> 100 µM
COCc1cc(Cl)cc(C(=O)Nc2cccc(CN)c2)c1	> 99.5 µM	> 100 µM
O=C(Nc1cc(Cl)cc(C(=O)Nc2cccc([C@H]3CCNC3)c2)c1)OCc1ccccc1	33.3 µM and 58.3 µM and 41.4 µM	95.4 µM and > 100 µM
Cn1nc(CCN)nc1NC(=O)c1cc(Cl)cc(NC(=O)OCc2ccccc2)c1	> 99.5 µM	> 100 µM
NCc1cccc(NC(=O)[C@H](NC(=O)OCc2ccccc2)C2CCN(Cc3ccccn3)CC2)c1	> 99.5 µM	> 100 µM
Cc1cc(CN)cc(NC(=O)c2cc(Cl)cc(NC(=O)OCc3ccccc3)c2)c1	42.2 µM	> 100 µM
C[C@H](N)c1cccc(NC(=O)c2cc(Cl)cc(NC(=O)OCc3ccccc3)c2)c1	68.6 µM	> 100 µM
NC12CCC(CNC(=O)c3cc(Cl)cc(NC(=O)OCc4ccccc4)c3)(CC1)OC2	> 99.5 µM	> 100 µM
Clc1ccc(-c2cc(CN3CCC(c4cscn4)CC3)[nH]n2)cc1	> 99.5 µM	> 100 µM
CCS(=O)(=O)c1ccc(Cl)cc1C(=O)Nc1cccc(CN)c1	> 99.5 µM	> 100 µM
Cn1cc(C(=O)N2CCC([C@H](NC(=O)OCc3ccccc3)C(=O)Nc3cccc(CN)c3)CC2)cn1	> 99.5 µM	> 100 µM
Cn1nc([C@@H]2CCCN2)nc1NC(=O)c1cc(Cl)cc(NC(=O)OCc2ccccc2)c1	> 99.5 µM	> 100 µM
CC(C)(C#N)CS(=O)(=O)N1CCC([C@H](NC(=O)OCc2ccccc2)C(=O)Nc2cccc(CN)c2)CC1	> 99.5 µM	> 100 µM
NCCCc1ccnc(NC(=O)c2cc(Cl)cc(NC(=O)OCc3ccccc3)c2)c1	48.2 µM	> 100 µM
NCc1cccc(NC(=O)[C@H](NC(=O)OCc2ccccc2)C2CCN(C(=O)c3ccco3)CC2)c1	> 99.5 µM	> 100 µM
NCc1cccc(NC(=O)c2cc(NC(=O)OCc3ccccc3)cc(C(F)(F)F)c2F)c1	> 99.5 µM	> 100 µM
NCc1cccc(NC(=O)[C@H](NC(=O)OCc2ccccc2)c2ccc(OCc3ccncn3)cc2)c1	99.2 µM	> 100 µM
Cn1ccnc1COc1cccc([C@H](NC(=O)OCc2ccccc2)C(=O)Nc2cccc(CN)c2)c1	> 99.5 µM	> 100 µM
O=c1ccc(N2CCN(Cc3c[nH]c4ccccc34)CC2)n[nH]1	> 99.5 µM	> 100 µM
NCc1cccc(NC(=O)c2cc(Cl)cc(C3CC3)c2)c1	> 99.5 µM	> 100 µM
NCc1cccc(NC(=O)c2cc(Cl)cc(N3CCCC3=O)c2)c1	> 99.5 µM	> 100 µM
Cc1c(CN)cccc1NC(=O)c1cc(Cl)cc(NC(=O)OCc2ccccc2)c1	> 99.5 µM	> 100 µM
CN1CCC(COc2cccc([C@H](NC(=O)OCc3ccccc3)C(=O)Nc3cccc(CN)c3)c2)CC1	> 99.5 µM	> 100 µM
NCc1cccc(NC(=O)[C@H](NC(=O)OCc2ccccc2)C2CCN(S(=O)(=O)c3cccnc3)CC2)c1	> 99.5 µM	> 100 µM
NCc1cccc(NC(=O)c2cc(Cl)cc3c2NCCC3)c1	> 99.5 µM	> 100 µM
O=C(Nc1cc(Cl)cc(C(=O)NCc2n[nH]c3c2CNCC3)c1)OCc1ccccc1	> 99.5 µM	> 100 µM
NCc1cccc(NC(=O)c2cc(Cl)cc3c2OCCNC3)c1	> 99.5 µM	> 100 µM

Compound	IC50 (Genome polyprotein [1])	IC50 (Genome polyprotein [2])
c1cnc2[nH]cc(C3CCN(Cc4c[nH]c5ccncc45)CC3)c2c1	> 99.5 µM	> 100 µM
Oc1cc(N2CCN(Cc3c[nH]c4ccccc34)CC2)ccn1	> 99.5 µM	> 100 µM
O=C(Nc1cc(Cl)cc(C(=O)Nc2cccc3c2CNC3)c1)OCc1ccccc1	> 99.5 µM	> 100 µM
NCc1cccc(NC(=O)[C@H](NC(=O)OCc2ccccc2)c2ccc(OCCc3cscn3)cc2)c1	> 99.5 µM	> 100 µM
NCc1cccc(NC(=O)[C@H](NC(=O)OCc2ccccc2)c2cccc(OC[C@H]3COCCO3)c2)c1	> 99.5 µM	> 100 µM
NCc1cccc(NC(=O)[C@H](NC(=O)OCc2ccccc2)C2CCN(C(=O)C3CCCCC3)CC2)c1	> 99.5 µM	> 100 µM
NCc1cccc(NC(=O)c2cc(Cl)cc3c2OCC3)c1	> 99.5 µM	> 100 µM
NCc1ccc(O)c(NC(=O)c2cc(Cl)cc(NC(=O)OCc3ccccc3)c2)c1	74.5 µM	> 100 µM
NCc1cccc(NC(=O)[C@H](NC(=O)OCc2ccccc2)C2CCN(C(=O)Cc3ccccc3)CC2)c1	> 99.5 µM	> 100 µM
CN(C)Cc1cc(NC(=O)[C@H](NC(=O)OCc2ccccc2)c2ccc(OCc3ccccc3)cc2)sn1	> 99.5 µM	> 100 µM
NCc1ccccc1Oc1ccc(S(=O)(=O)Nc2ccc(Cl)cc2C(=O)NCC(F)(F)F)cc1	> 99.5 µM	> 100 µM
c1nc(C2CCN(Cc3cc(C4CCOCC4)[nH]n3)CC2)cs1	> 99.5 µM	> 100 µM
CN(C)CCOc1ccc(Cl)cc1C(=O)Nc1cccc(CN)c1	> 99.5 µM	> 100 µM
Cc1ccc(NC(=O)c2cc(Cl)cc(NC(=O)OCc3ccccc3)c2)cc1CN	> 99.5 µM and 95.8 µM	> 100 µM
NCc1cccc(NC(=O)[C@H](NC(=O)OCc2ccccc2)C2CCN(C(=O)c3ccccc3)CC2)c1	> 99.5 µM	> 100 µM
CCCCS(=O)(=O)N1CCC([C@H](NC(=O)OCc2ccccc2)C(=O)Nc2cccc(CN)c2)CC1	> 99.5 µM	99 µM
CSc1cc(Cl)cc(C(=O)Nc2cccc(CN)c2)c1	> 99.5 µM	> 100 µM
CN1C(=O)C[C@H](C(=O)Nc2cccc(CN)c2)[C@H]1c1ccc(Cl)c(Cl)c1	> 99.5 µM	> 100 µM
c1cncc(-c2cc(CN3CCC(c4cscn4)CC3)n[nH]2)c1	> 99.5 µM	> 100 µM
CCOCCS(=O)(=O)N1CCC([C@H](NC(=O)OCc2ccccc2)C(=O)Nc2cccc(CN)c2)CC1	> 99.5 µM	> 100 µM
NCc1cccc(NC(=O)c2cc(Cl)ccc2OCC(F)(F)F)c1	> 99.5 µM	> 100 µM
NCc1cccc(NC(=O)[C@H](NC(=O)OCc2ccccc2)C2CCN(CCc3ccccc3)CC2)c1	> 99.5 µM	> 100 µM
Cn1ncc(CN2CCC([C@H](NC(=O)OCc3ccccc3)C(=O)Nc3cccc(CN)c3)CC2)n1	> 99.5 µM	> 100 µM
COCCN1C(=O)C[C@H](C(=O)Nc2cccc(CN)c2)[C@H]1c1ccc(Cl)c(F)c1	> 99.5 µM	> 100 µM
NCc1cccc(NC(=O)[C@H](NC(=O)OCc2ccccc2)c2cccc(OCCn3cccn3)c2)c1	> 99.5 µM	> 100 µM
NCc1cccc(NC(=O)c2cc(Cl)cc3c2CCC3)c1	> 99.5 µM	> 100 µM
